Experimental data from patent US20210255193A1, “LYSINE REACTIVE PROBES AND USES THEREOF” (The Scripps Research Institute, priority 2017, published 2021).
Each block holds one compound with its values, some of them ahead of it.

How the values were obtained:
Assay in all cases: competitive isoTOP-ABPP
Format in all cases: binding
PLIN3 Perilipin-3 = target: T1, PLIN3 Perilipin-3 (Homo sapiens, UniProt O60664); parameters: key to isoTOP-ABPP reactivity ratio at lysine O60664_K257 / isoTOP-ABPP reactivity ratio at lysine O60664_K140: R = MS1 peak area ratio, DMSO (heavy) / compound-treated (light); capped at 20
T1 construct: isoTOP-ABPP experiments performed in cell lysates (in vitro); endogenous in cells; host or cells: MDA-MB-231 soluble lysate
T1 sequence (O60664 1-434): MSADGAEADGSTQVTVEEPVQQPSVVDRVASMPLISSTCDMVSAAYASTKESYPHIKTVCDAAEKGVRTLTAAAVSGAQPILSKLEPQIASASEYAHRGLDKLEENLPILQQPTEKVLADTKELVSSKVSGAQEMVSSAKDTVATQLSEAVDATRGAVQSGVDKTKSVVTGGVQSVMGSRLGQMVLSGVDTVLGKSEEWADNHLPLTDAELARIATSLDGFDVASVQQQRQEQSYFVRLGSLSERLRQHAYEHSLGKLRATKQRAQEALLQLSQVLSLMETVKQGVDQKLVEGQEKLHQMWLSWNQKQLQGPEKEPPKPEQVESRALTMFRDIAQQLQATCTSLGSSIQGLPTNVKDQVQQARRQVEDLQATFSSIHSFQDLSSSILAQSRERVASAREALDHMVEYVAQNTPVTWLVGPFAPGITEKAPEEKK
Method: (§1) In vitro covalent fragment treatment for isoTOP-ABPP. All compounds were made up as solutions in DMSO (100×) and were used at a final concentration of 50 μM for activated esters and 100 μM for guanidinylating agents. For each profiling sample, 0.5 ml of lysate was treated with 5 μl of the 100× compound stock solution or 5 μl of DMSO. Samples were treated with activated esters for
(§2) STP-alkyne labeling and click chemistry. For concentration-dependent reactivity measurements by isoTOP-ABPP, 0.5 ml proteome aliquots were treated at ambient temperature with 1 mM STP-alkyne 1 (5 μl of 100 mM stock in DMSO) and 0.1 mM STP alkyne 1 (5 μl of 10 mM stock in DMSO), respectively. For competitive isoTOP-ABPP, after in vitro fragment treatment (detailed above), the samples were labeled for 1 h at ambient temperature with 0.1 mM STP-alkyne 1 (5 μl of 10 mM stock in DMSO). Samples were conjugated by copper-mediated azide-alkyne cycloaddition (CuAAC) to either the light (1 mM STP-alkyne or fragment treated) or heavy (0.1 mM STP-alkyne or DMSO treated) TEV tags (10 μl of 5 mM stocks in DMSO, final concentration=100 μM) using tris(2-carboxyethyl)phosphine hydrochloride
(§3) R value calculation and processing. The ratios of light and heavy MS1 peaks for each unique peptide were quantified with a CIMAGE software using default parameters (3 MS1 acquisitions per peak and signal to noise threshold set to 2.5). For reactivity measurements by isoTOP-ABPP, the R value was calculated from the ratio of MS1 peak areas, comparing the 1 mM STP alkyne sample (light TEV tag) with the 0.1 mM STP alkyne sample (heavy TEV tag). For competitive isoTOP-ABPP, the R value was calculated from the ratio of MS1 peak areas, comparing the DMSO treated sample (heavy TEV tag) with the compound treated sample (light TEV tag). […] Ratios for unique peptide entries are calculated for each experiment; overlapping peptides with the same modified lysine (for example, different charge states, MudPIT chromatographic steps or tryptic termini) are grouped together and the median ratio is reported as the final ratio (R). The peptide ratios reported by CIMAGE were further filtered to ensure the removal or correction of low-quality ratios in each individual data set. The quality filters applied were the following: removal of half tryptic peptides; for ratios with high standard deviations from the median (90% of the median or above) the lowest ratio was taken instead of the median; removal of peptides with R=20 and only a single MS2 event triggered during the elution of the parent ion; manual annotation of all the peptides with ratios of 20, removing any peptides with low quality elution profiles that remained after the previous curation steps (only done for competitive isoTOP-ABPP).
(§4) Cross-data processing for fragment screening. For compound treated samples, biological replicates of the same condition were averaged, if the standard deviation was below 60% of the mean; otherwise, for lysines with at least one R value <4 for a particular compound, the lowest value of the ratio set was taken. For lysines, where all R values for a particular compound were ≥4, the average was reported. For peptides containing several possible modified lysines, the lysine with the highest number of quantification events was used for analysis and the remaining, redundant peptides were reported as alternative modification sites. Peptides included in the aggregate dataset (those used for further bioinformatics and statistical analyses) were required to have been quantified in 2 experiments for competitive isoTOP-ABPP. Lysines were categorized as liganded, if they had at least one ratio R≥4 (hit fragments). For liganded lysines with R=20 for all liganding events, lysines were required to have been quantified with R=20 in two separate experiments and were further required to have been quantified with R<20 in one additional experiment.

[1] = target: T2, GSTT2B Glutathione S-transferase theta-2B (Homo sapiens, UniProt P0CG30)
T2 construct: isoTOP-ABPP experiments performed in cell lysates (in vitro); endogenous in cells; host or cells: MDA-MB-231 soluble lysate
T2 sequence (P0CG30 1-244): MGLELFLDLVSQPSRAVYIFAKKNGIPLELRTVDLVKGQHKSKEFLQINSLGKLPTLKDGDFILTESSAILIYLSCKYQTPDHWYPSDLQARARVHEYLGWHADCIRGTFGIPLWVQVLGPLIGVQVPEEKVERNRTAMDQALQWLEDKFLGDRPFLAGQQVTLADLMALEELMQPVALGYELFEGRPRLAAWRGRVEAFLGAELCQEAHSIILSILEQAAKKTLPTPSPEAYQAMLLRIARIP
Method: as §1, §2, §3, §4

[2] = target: T3, MRPS24 28S ribosomal protein S24, mitochondrial (Homo sapiens, UniProt Q96EL2)
T3 construct: isoTOP-ABPP experiments performed in cell lysates (in vitro); endogenous in cells; host or cells: soluble proteome of human cancer cell lines (MDA-MB-231; Ramos and Jurkat also prepared)
Method: as §1, §2, §3, §4

[3] = target: T4, CPOX Coproporphyrinogen-III oxidase, mitochondrial (Homo sapiens, UniProt P36551); parameters: key to isoTOP-ABPP reactivity ratio at lysine P36551_K404: R = MS1 peak area ratio, DMSO (heavy) / compound-treated (light)
T4 construct: isoTOP-ABPP experiments performed in cell lysates (in vitro); endogenous in cells; host or cells: soluble proteome of human cancer cell lines (MDA-MB-231; Ramos and Jurkat also prepared)
T4 sequence (P36551 111-454): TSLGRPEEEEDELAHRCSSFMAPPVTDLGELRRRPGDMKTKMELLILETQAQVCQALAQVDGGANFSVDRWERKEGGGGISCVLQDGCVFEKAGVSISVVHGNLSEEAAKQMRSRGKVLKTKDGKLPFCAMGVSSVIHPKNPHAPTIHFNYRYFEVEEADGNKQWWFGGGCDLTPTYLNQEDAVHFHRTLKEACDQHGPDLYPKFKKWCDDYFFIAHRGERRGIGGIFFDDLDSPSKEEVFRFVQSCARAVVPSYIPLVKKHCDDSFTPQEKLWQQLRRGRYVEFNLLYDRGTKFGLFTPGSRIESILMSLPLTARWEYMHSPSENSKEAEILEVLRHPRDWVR
Method: as §1, §2, §3, §4

isoTOP-ABPP ratio, lysine O60664_K140 (PLIN3 Perilipin-3; 100 uM_231_sol_in vitro): 3.0
isoTOP-ABPP ratio, lysine P0CG30_K53 ([1]; 100 uM_231_sol_in vitro): 3.1
isoTOP-ABPP ratio, lysine Q96EL2_K94 ([2]; 100 uM_231_sol_in vitro): 3.0
isoTOP-ABPP ratio, lysine P36551_K404 ([3]; 100 uM_231_sol_in vitro): 2.5
Compound: COC(=O)NC(=NC(=O)OCC1c2ccccc2-c2ccccc21)n1cccn1 [fragment 49, N-Methoxycarbonyl-N′-9-fluorenylmethoxycarbonyl-pyrazole-1-carboxamidine]

isoTOP-ABPP reactivity ratio at lysine O60664_K140 (PLIN3 Perilipin-3; 50 uM, 231 sol, in vitro): 1.2
isoTOP-ABPP reactivity ratio at lysine O60664_K257 (PLIN3 Perilipin-3; 50 uM, 231 sol, in vitro): 1.1
isoTOP-ABPP reactivity ratio at lysine P0CG30_K53 ([1]; 50 uM, 231 sol, in vitro): 1.0
isoTOP-ABPP reactivity ratio at lysine Q96EL2_K94 ([2]; 50 uM, 231 sol, in vitro): 1.0
isoTOP-ABPP reactivity ratio at lysine P36551_K404 ([3]; 50 uM, 231 sol, in vitro): 0.9
Compound: CCn1cc(C(=O)Oc2c(F)c(F)c(F)c(F)c2F)c(=O)c2ccc(C)nc21 [fragment 28, Pentafluorophenyl 1-ethyl-7-methyl-4-oxo-1,4-dihydro-1,8-naphthyridine-3-carboxylate]

R value (DMSO/fragment) for probe 1 labeling (PLIN3 Perilipin-3; O60664_K140, 50 uM, 231 sol, in vitro): 1.5
R value (DMSO/fragment) for probe 1 labeling (PLIN3 Perilipin-3; O60664_K257, 50 uM, 231 sol, in vitro): 2.2
R value (DMSO/fragment) for probe 1 labeling ([1]; P0CG30_K53, 50 uM, 231 sol, in vitro): 1.0
R value (DMSO/fragment) for probe 1 labeling ([2]; Q96EL2_K94, 50 uM, 231 sol, in vitro): 1.4
R value (DMSO/fragment) for probe 1 labeling ([3]; P36551_K404, 50 uM, 231 sol, in vitro): 10.8
Compound: O=C(CCc1cn(-c2ccccc2)nc1-c1ccccc1)Oc1c(F)c(F)c(F)c(F)c1F [fragment 19, Pentafluorophenyl 3-(1,3-diphenyl-1H-pyrazol-4-yl)propanoate]

isoTOP-ABPP ratio, lysine O60664_K140 (PLIN3 Perilipin-3; 50 uM_231_sol_in vitro): 1.3
isoTOP-ABPP ratio, lysine P0CG30_K53 ([1]; 50 uM_231_sol_in vitro): 0.9
isoTOP-ABPP ratio, lysine Q96EL2_K94 ([2]; 50 uM_231_sol_in vitro): 1.0
isoTOP-ABPP ratio, lysine P36551_K404 ([3]; 50 uM_231_sol_in vitro): 1.0
Compound: O=C(Oc1c(F)c(F)cc(F)c1F)c1cc(C(F)(F)F)cc(C(F)(F)F)c1 [fragment 48, 2,3,5,6-Tetrafluorophenyl 3,5-bis(trifluoromethyl)benzoate]
